Where a SMILES comes first, the peptide text is derived from it.
Experiments:
pathogenic fungi = conditions: pure protein added to in vitro antifungal assay medium; cited from earlier work
[1] = test system: Fusarium graminearum PH-1

| Molecule | Growth inhibition of pathogenic fungi in vitro (pathogenic fungi) | IC100 (concentration required for 100% inhibition of fungal growth) [1] | IC50 ([1]; 24 h) [µM] |
| --- | --- | --- | --- |
| Rs-AFP2: small cysteine-rich protein isolated from radish seed (QKLCQRPSGTWSGVCGNNNACKNQCIRLEKARHGSCNYVFPAHKCICYFPC; UniProt P30230 30-80, looked up) | inhibited the growth of many pathogenic fungi | – | – |
| C[C@H](NC(=O)CN)C(=O)N[C@@H](CS)C(=O)N[C@@H](Cc1c[nH]cn1)C(=O)N[C@@H](CCCNC(=N)N)C(=O)N[C@@H](CCC(N)=O)C(=O)NCC(=O)N[C@@H](Cc1ccccc1)C(=O)NCC(=O)N[C@@H](Cc1ccccc1)C(=O)N[C@@H](C)C(=O)N[C@@H](CS)C(=O)N[C@@H](Cc1ccccc1)C(=O)N[C@@H](CS)C(=O)N[C@@H](Cc1ccc(O)cc1)C(=O)N[C@@H](CCCCN)C(=O)N[C@@H](CCCCN)C(=O)N[C@@H](CS)C(=O)O [GMA-5C, GACHRQGFGFACFCYKKC] (H-GACHRQGFGFACFCYKKC-OH; N-terminus and C-terminus assumed) | – | about 24 μM | 6 to 12 |
| Rs-AFP1: small cysteine-rich protein isolated from radish seed (QKLCERPSGTWSGVCGNNNACKNQCINLEKARHGSCNYVFPAHKCICYFPC; UniProt P69241 30-80, looked up) | inhibited the growth of many pathogenic fungi | – | – |

— patent US12404519B2 (priority 2013, dated 2025)
